In patent US12109184B2, “Personalized methods of treating cancer” (CANCER RESEARCH TECHNOLOGY LIMITED, priority 2020, dated 2024):
“Also recorded” adds a separate entry of the source.

Legend:
[1] = test system: HCT116, SW480, MDA-MB-231, and MIAPaCa-2 cells; settings: exogenous GSH 5 mM
Procedure: HCT116, SW480, MDA-MB-468, MDA-MB-231, AsPC-1, BxPC-3, CFPAC-1, MIAPaCa-2, PANC-1, Panc10.05, SW1990, U-251, LN-18, LN-229, T98G, U-343, A-172 cells were used. Cell lines were authenticated using Short Tandem Repeat (STR) profiling and tested for mycoplasma. Colorectal and breast cancer cell lines were grown in Dulbecco's Modified Eagle Medium (DMEM), pancreatic ductal adenocarcinoma (PDAC) cell lines were grown in Roswell Park Memorial institute (RPMI) 1640. All cell lines were supplemented with penicillin-streptomycin, amphotericin, 2 mM L-glutamine, and 10% fetal bovine serum (FBS). Cells were kept at 37° C. in 5% CO2 in a humidified cell culture incubator. A formulated medium lacking cysteine, cystine, methionine, and serine was used as a base for creating experimental media. The base medium formulation contained 0.2 mM L-histidine, 0.4 mM L-isoleucine, 0.4 mM L-leucine, 0.4 mM L-lysine, 0.2 mM L-phenylalanine, 0.4 mM L-threonine, 0.08 mM L-tryptophan, 0.4 mM L-valine, 0.2 mM L-arginine, 2 mM L-glutamine, 0.2 mM L-tyrosine, 0.4 mM L-alanine, 0.3 mM L-proline, 0.15 mM L-glutamic acid, 0.1 mM L-aspartic acid, 0.2 mM L-asparagine, and 0.4 mM glycine. […]
Cells were seeded at 6×10^4 cells per well into 24-well plates (triplicate wells per condition) in the relevant complete medium and adhered for a full 24-hour period. […] DAPI-stained cell nuclei were detected via microscopy. […]

MDA-MB-231 cells = experiment: Steady state metabolite measurements by LC-MS; type: cell-based
Procedure: Metabolomics experiments were performed as follows. Cells were seeded into 6-well plates (5×10^5-1.5×10^6 cells/mL, depending on time-course, triplicate wells per condition) in complete medium and adhered overnight. Cells were washed with PBS, and the relevant experimental media were added for the stated times. Duplicate wells were used for cell counting. Cell counts were used to normalize the volume of lysis solvent prior to metabolite extractions (2×10^6 cells/mL). Cells were washed quickly in PBS, then ice-cold lysis solvent (methanol 50%, acetonitrile 30%, water 20%) was added, and cells were scraped on ice. Lysates were transferred to 1.5 mL tubes on ice, vortexed, then spun by centrifugation at 15,000 rpm at 4° C. for 10 minutes. Supernatants were collected and stored at -80° C. for LC-MS analysis. Prepared samples were analyzed on an LC-MS platform consisting of an […] system and an ExactiveTM mass spectrometer. A Sequant® ZIC®-HILIC column (4.6 mm×150 mm, 3.5 μm) was used to separate the metabolites with the mobile phase using A=0.1% (v/v) formic acid in water and B=0.1% (v/v) formic acid in acetonitrile. A gradient program starting at 20% of A and linearly increasing to 80% at 30 min was used followed by washing (92% of A for 5 mins) and re-equilibration (20% of A for 10 min) steps. The total run time of the method was 45 min. The LC stream was desolvated and ionized in the HESI probe. The ExactiveTM mass spectrometer was operated in full scan mode over a mass range of 70-1,200 m/z at a resolution of 50,000 with polarity switching. The LC-MS raw data was converted into mzML files by using ProteoWizard and imported to MZMine 2.10 for peak extraction and sample alignment. An in-house database including all possible ^13C and ^15N isotopic m/z values of the relevant metabolites was used for the assignment of LCMS signals. Finally the peak areas were used for comparative quantification.

[2] = test system: breast, colorectal and pancreatic cancer cell lines; experiment: Cell counting in complete or cysteine-free medium, cell lines not given; type: cell-based; settings: supplementation during cysteine starvation
Procedure: The base medium formulation contained 0.2 mM L-histidine, 0.4 mM L-isoleucine, 0.4 mM L-leucine, 0.4 mM L-lysine, 0.2 mM L-phenylalanine, 0.4 mM L-threonine, 0.08 mM L-tryptophan, 0.4 mM L-valine, 0.2 mM L-arginine, 2 mM L-glutamine, 0.2 mM L-tyrosine, 0.4 mM L-alanine, 0.3 mM L-proline, 0.15 mM L-glutamic acid, 0.1 mM L-aspartic acid, 0.2 mM L-asparagine, and 0.4 mM glycine.
DAPI-stained cell nuclei were detected via microscopy.
AMD1 inhibitor sardomozide/SAM486A, GPX4 inhibitor RSL3, and CSE inhibitor beta-cyano-L-alanine were used.
For experiments using spermine oxidase (SMOX) and polyamine oxidase (PAOX) inhibitors or MTOB, cells were pre-treated with stated concentrations for 16 hours in complete medium. After pre-treatment, cells were washed in PBS, and treatment was continued in complete or cysteine-free medium for stated times. After treatment was finished, cells were fixed and stained as described above. For experiments using MTA, polyamines, GPX4 and CSE inhibitors, treatment started at the same time as cysteine starvation. For experiments involving hypoxic conditions, cells were seeded in normoxic conditions and allowed to adhere for 24 hours before control and cysteine starvation medium was added and cells were immediately transferred either to a humidified cell culture incubator set to 37° C. in 20% O2 (normoxia), or a hypoxia chamber set to 37° C. in 1% O2 (hypoxia) for the stated times. Cells were fixed immediately and stained as described above.

[3] = test system: SW480 and MDA-MB-231 cells; experiment: Cell counting, rescue by cysteine precursors during cysteine starvation; type: cell-based
Procedure: HCT116, SW480, MDA-MB-468, MDA-MB-231, AsPC-1, BxPC-3, CFPAC-1, MIAPaCa-2, PANC-1, Panc10.05, SW1990, U-251, LN-18, LN-229, T98G, U-343, A-172 cells were used. Cell lines were authenticated using Short Tandem Repeat (STR) profiling and tested for mycoplasma. Colorectal and breast cancer cell lines were grown in Dulbecco's Modified Eagle Medium (DMEM), pancreatic ductal adenocarcinoma (PDAC) cell lines were grown in Roswell Park Memorial institute (RPMI) 1640. All cell lines were supplemented with penicillin-streptomycin, amphotericin, 2 mM L-glutamine, and 10% fetal bovine serum (FBS). Cells were kept at 37° C. in 5% CO2 in a humidified cell culture incubator. A formulated medium lacking cysteine, cystine, methionine, and serine was used as a base for creating experimental media. The base medium formulation contained 0.2 mM L-histidine, 0.4 mM L-isoleucine, 0.4 mM L-leucine, 0.4 mM L-lysine, 0.2 mM L-phenylalanine, 0.4 mM L-threonine, 0.08 mM L-tryptophan, 0.4 mM L-valine, 0.2 mM L-arginine, 2 mM L-glutamine, 0.2 mM L-tyrosine, 0.4 mM L-alanine, 0.3 mM L-proline, 0.15 mM L-glutamic acid, 0.1 mM L-aspartic acid, 0.2 mM L-asparagine, and 0.4 mM glycine. The base medium was supplemented with 10% dialyzed FBS, penicillin-streptomycin, and amphotericin. To ensure an adequate supply of vitamin B6 (a crucial co-factor for de novo cysteine synthesis), base medium was supplemented with additional 20 μM vitamin B6. The control experimental medium was the base medium supplemented with 0.4 mM L-cysteine, 0.2 mM L-methionine, and 0.4 mM L-serine. The cysteine starvation (−Cys) experimental medium was base medium supplemented with 0.2 mM L-methionine and 0.4 mM L-serine.
Cells were seeded at 6×10^4 cells per well into 24-well plates (triplicate wells per condition) in the relevant complete medium and adhered for a full 24-hour period. A ‘time-0’ plate was included to record the starting cell number to calculate relative cell numbers. Cells were washed once with phosphate-buffered saline (PBS) before receiving experimental medium containing or lacking the specified amino acids, metabolites, or drugs. At the stated time-points the medium was removed, cells were fixed in a 4% formalin-PBS solution. Cells were then washed and stored in PBS before staining with 4′,6-diamidino-2-phenylindole (DAPI)-Triton™ X100-PBS solution for 1 hour, followed by storage in PBS at 4° C. until further analysis. DAPI-stained cell nuclei were detected via microscopy.
Homocysteine, cystathionine, glutathione, putrescine, spermine, spermidine, GPX4 inhibitor ML210, SMOX inhibitor MDL 72527, PAOX inhibitor diminazene aceturate, ferrostatin-1 and erastin were used. AMD1 inhibitor sardomozide/SAM486A, GPX4 inhibitor RSL3, and CSE inhibitor beta-cyano-L-alanine were used. […]

[4] = test system: HCT116, SW480, MDA-MB-231 and MDA-MB-468 cells; experiment: Western blot of transsulfuration pathway enzyme expression; type: cell-based; settings: medium lacking cysteine with 0.8 mM homocysteine, 24 hr
From the text: Protein was extracted from whole cells by lysis in RIPA buffer supplemented with a protease and […] cocktail. Lysates were cleared using centrifugation, resolved on 4-12% bis-tris pre-cast gels, and transferred to nitrocellulose membranes. Primary antibodies used were MTAP, AMD1, ODC1, GPX4, AHCY, CBS, CSE, and actin as a loading control on the same blots. Secondary antibodies used were IRDye800CW anti-mouse, IRDye680RD anti-mouse, IRDye800CW anti-rabbit, and IRDye680RD anti-rabbit. Protein bands were detected and quantified using an infrared scanner and imaging software.

[5] = medium lacking cysteine with 5 mM glutathione
[6] = medium lacking cysteine, supplement 0.2 mM

N[C@@H](CCC(=O)N[C@@H](CS)C(=O)NCC(=O)O)C(=O)O [GSH, glutathione]
cell death and proliferation during cysteine starvation [1]: prevented cell death and restored proliferation
intracellular GSH levels (MDA-MB-231 cells; [5]): fully restored
intracellular cysteine and γ-glutamylcysteine levels (MDA-MB-231 cells; [5]): partial rescue

N[C@@H](CCS)C(=O)O [homocysteine]
rescue from cysteine starvation-induced cell death (summary in discussion) [2]: rescued from starvation-induced cell death; also recorded: able to rescue cells from cysteine starvation
rescue of survival/proliferation during cysteine starvation ([3]; supplement at 0.2 mM): substantial rescue
restoration of proliferation during cysteine starvation ([3]; supplement at 0.8 mM): further able to restore proliferation; also recorded: restored proliferation and increased cell survival
intracellular cysteine levels (MDA-MB-231 cells; [6]): moderate increases
intracellular homocysteine and cystathionine levels (MDA-MB-231 cells; [6]): significantly increased
intracellular γ-glutamylcysteine and GSH levels (MDA-MB-231 cells; [6]): more marked increases
intracellular cysteine levels (MDA-MB-231 cells; medium lacking cysteine, supplement 0.8 mM, 8 h): significant increase
transsulfuration pathway enzyme expression beyond starvation alone [4]: little impact
